Test results reported in patent US20230278972A1, “SUBSTITUTED HALOALKYL SULFONANILIDE HERBICIDES” (FMC Corporation, priority 2020, published 2023).

Tests used:
Format in all cases: in vivo
[1] = test system: Foxtail, Giant (giant foxtail, Setaria faberi); assay: Test A1 preemergence, Foxtail, Giant
Outline: (§1)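 Plants grown in pots of loam/sand mix; preemergence = soil-directed spray on seeded pots, postemergence = spray at 1–2 leaves, height 2–10 cm; test chemicals formulated in non-phytotoxic solvent with surfactant.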

[2] = test system: goosegrass (Eleusine indica); assay: Test A1 postemergence, goosegrass; conditions: Postemergence
Outline: (§2)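 Pre: seeds in loam/sand blend, directed soil spray. Post: potted plants, same soil, 2–10 cm, 1–2 leaf stage. Chemicals in non-phytotoxic solvent + surfactant for both.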

[3] = test system: ragweed (common ragweed, Ambrosia artemisiifolia); assay: Test A1 preemergence, ragweed
Outline: as §1

[4] = test system: galium (catchweed bedstraw, Galium aparine); assay: Test A1 postemergence, galium; conditions: Postemergence
Outline: as §2

[5] = test system: blackgrass (Alopecurus myosuroides); assay: Test A1 postemergence, blackgrass; conditions: Postemergence, 0 to 100 scale (0 no effect, 100 complete control)
Outline: as §2

[6] = test system: Ryegrass, Italian (Italian ryegrass, Lolium multiflorum); assay: Test A1 preemergence, Ryegrass, Italian
Outline: as §1

[7] = test system: Foxtail, Giant (giant foxtail, Setaria faberi); assay: Test A1 postemergence, Foxtail, Giant; conditions: Postemergence
Outline: as §2

[8] = test system: corn (Zea mays); assay: Test A1 preemergence, corn
Outline: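 Seeds were first planted into a blend of loam soil and sand and given a preemergence directed soil spray. In parallel, pots of the same soil were sown for postemergence application once plants reached 2 to 10 cm and the one- to two-leaf stage. Both used surfactant-containing non-phytotoxic solvent formulations.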

[9] = 31 g ai/ha, 0 to 100 scale (0 no effect, 100 complete control)
[10] = 125 g ai/ha, 0 to 100 scale, 0 no effect, 100 complete control
[11] = 31 g ai/ha, 0 to 100 scale (0 no effect, 100 complete control), 10 days

Row | SMILES | Plant response rating, Foxtail, Giant [1, 9] | Plant response rating, Foxtail, Giant [1, 10] | Plant response rating, Goosegrass [2, 11] | Plant response rating, Goosegrass ([2]; 125 g ai/ha, 0 to 100 scale) | Plant response rating, Ragweed [3, 9] | Plant response rating, Ragweed [3, 10] | Plant response rating, Galium [4, 11] | Plant response rating, Galium ([4]; 125 g ai/ha, 0 to 100 scale) | Plant response rating, Blackgrass ([5]; 31 g ai/ha, 10 days) | Plant response rating, Blackgrass ([5]; 125 g ai/ha) | Plant response rating, Ryegrass, Italian [6, 9] | Plant response rating, Ryegrass, Italian [6, 10] | Plant response rating, Foxtail, Giant [7, 11] | Plant response rating, Foxtail, Giant ([7]; 125 g ai/ha, 0 to 100 scale) | Plant response rating, Corn [8, 9] | Plant response rating, Corn [8, 10]
1 | Cc1c(C(=O)N2CCC(F)CC2)cc(N(COC(=O)C(C)(C)C)S(=O)(=O)C(F)(F)F)c(C)c1C [Compound 361] | 0 | 90 | 0 | 30 | 20 | 90 | 80 | 90 | 0 | 0 | 0 | 0 | 10 | 50 | 0 | 0
2 | Cc1c(C2=NO[C@@H]3CCC[C@H]23)cc(N(COC(=O)C(C)(C)C)S(=O)(=O)C(F)(F)F)c(C)c1C [Compound 336, [[(Trifluoromethyl)sulfonyl][2,3,4-trimethyl-5-[(3aR,6aR)-3a,5,6,6a-tetrahydro-4H-cyclopent[d]isoxazol-3-yl]phenyl]amino]methyl 2,2-dimethylpropanoate] | 20 | 80 | 0 | 0 | 0 | 50 | 60 | 100 | 0 | 0 | 30 | 30 | 0 | 40 | 0 | 0
3 | CCOC(=O)N(c1cc(C(=O)N2C[C@@H](C)O[C@@H](C)C2)c(C)c(C)c1C)S(=O)(=O)C(F)(F)F [Compound 332] | 100 | 100 | 0 | 90 | 50 | 80 | 80 | 90 | 0 | 90 | 0 | 20 | 30 | 90 | 0 | 10
4 | CCOC1CC(c2cc(N(COC(=O)C(C)(C)C)S(=O)(=O)C(F)(F)F)c(C)cc2C)=NO1 (stereo not shown) [Compound 339] | 0 | 20 | 0 | 30 | 20 | 50 | 30 | 50 | 0 | 30 | 30 | 50 | 0 | 50 | 0 | 0
5 | Cc1c(NS(=O)(=O)C(F)(F)F)cc(C(=O)N2CCOCC2)c(C)c1C [Compound 289, 1,1,1-Trifluoro-N-[2,3,4-trimethyl-5-(4-morpholinylcarbonyl)phenyl]methanesulfonamide] | 30 | 100 | 40 | 70 | 0 | 60 | 60 | 80 | 0 | 10 | 20 | 70 | 40 | 90 | 0 | 30
6 | CCOC(=O)N(c1cc(C(=O)N2CCOCC2)c(C)c(C)c1C)S(=O)(=O)C(F)(F)F [Compound 325] | 30 | 100 | 0 | 90 | 50 | 90 | 40 | 90 | 0 | 90 | 40 | 90 | 30 | 90 | 0 | 40
7 | Cc1cc(C)c(N(COC(=O)C(C)(C)C)S(=O)(=O)C(F)(F)F)cc1C(=O)N1CCC(F)(F)CC1 [Compound 350] | 0 | 80 | 10 | 80 | 20 | 80 | 70 | 90 | 0 | 0 | 30 | 30 | 10 | 30 | 0 | 0
